Counter-ions that a name gives are not always drawn. Like-named read-outs stand apart in the source and are kept apart here.

The source of these data is patent publication US10196411B2, “Tizoxanide phosphate and alkane sulfonate and pharmaceutical applications thereof” (priority 2014, dated 2019).

The nature of data set [1]: Pharmacokinetic evaluation of oral administration in mice (tizoxanide in blood by LC/MS/MS). Conditions: in words; for conversion to the active form tizoxanide in vivo: after oral administration in mice; for Area Under concentration-time Curve (AUC) compared to nitazoxanide: oral administration in mice. It is filed as in vivo, ICR mice. Here is the method:
Sample preparation: 32.57 μmol of a test compound was dissolved in 100 μL dimethyl sulfoxide (DMSO), with the addition of 10 mL 0.5% Carboxyl Methyl Cellulose Sodium (CMC-Na) solution, to prepare a sample at 3.257 μmol/mL.
The test compounds refer to the compounds prepared in Examples of the invention and the positive control compound nitazoxanide. The experiment was carried out in two batches, wherein the first hatch of test compounds were Compound 1, 2, 6, 7, 8, 9 and the positive control compound nitazoxanide; and the second batch of test compounds were Compound 3, 4, 5, 12, 14, 17, 18 and positive control compound nitazoxanide.
Experimental method: ICR mice (SPS grade, male, […]), purchased from Beijing Vital River Laboratory Animal Technology Co., Ltd., were grouped randomly depending on body weight, 3 mice for each group. Nitazoxanide and a test compound were intragastrically administered separately to each mouse at a dose of 10 mL/kg (i.e., 32.57 μmol/kg of corresponding drug to each mouse), wherein nitazoxanide was used as positive control, and 0.1 ml blood was taken from veins of Fundus Oculi at 0.08, 0.25, 0.5, 1, 2, 4, 6, 8 and 12 h after administration, placed in a Heparin Sodium-containing centrifuge tube, and centrifuged for 20 min (at a relative centrifugal force (RCF) of 3000 g). The plasma was taken and stored in a −20° C. refrigerator for further detection.
During the detection, 50 μL plasma was taken, with the addition of an internal standard solution (5000 ng/mL glipizide aqueous solution, 10 μL), and the addition of acetonitrile (200 μL), and then mixed well. The mixture was vortexed for 3 min, and centrifuged for 10 min (at a relative centrifugal force (RCF) of 8500 g). The supernatant (50 μL) was well mixed with water (50 μL), and 10 μL was drawn for LC/MS/MS analysis, so as to detect the blood concentration of tizoxanide. The results are shown in Table 1, Table 2, Table 3, Table 4, FIG. 1, and FIG. 2.

Data set [2] in a line: Pharmacokinetic evaluation of oral administration and intravenous injection in rats. It is filed as in vivo, SD rats. Conditions: rats; for MRT last: read-out: MRT(0-t). The protocol:
9 SD rats (SPF grade, male, 200±10 g), provided by Laboratory Animal Center of the Academy of Military Medical Sciences, were grouped randomly, 3 […] for each group.
[…]; The plasma was separated and stored in a −20° C. refrigerator for further detection.
(2) Oral administration group of Compound 3, a dose of 15 mg/kg (equivalent to a dose of 41 μmol/kg tizoxanide); […]; The plasma was separated and stored in a −20° C. refrigerator for further detection.
(3) Oral administration group of nitazoxanide: a dose of 12.5 mg/kg (equivalent to a dose of 41 μmol/kg tizoxanide); administration volume: 2 mL/200 g rat (preparation of a test solution: 10.96 mg nitazoxanide was weighed accurately and dissolved by adding 600 μL DMSO, and […] sterile water was added to prepare a clear solution at 1.25 mg/mL); after oral administration of nitazoxanide at 12.5 mg/kg in rats, blood was taken before administration and at 0.08, 0.25, 0.5, 1, 2, 4, 6, 8, 12 and 24 h after administration. The plasma was separated and stored in a −20° C. refrigerator for further detection.
Treatment of plasma sample: 100 μL plasma was taken, 300 μL acetonitrile solution containing internal standard (500 nmol/L a solution of tolbutamide in acetonitrile) was added, and then mixed well. The mixture was vortexed for 1 min, and centrifuged at 4° C. for 10 min (at a relative centrifugal force (RCF) of 14000 g). The supernatant was taken, and 20 μL was drawn for LC/MS/MS analysis, so as to detect the blood concentration of tizoxanide and the prototype drug.

Another data set concerns Helicobacter pylori. Conditions: 103 strains of Helicobacter pylori; cited from earlier work.
Where [3] appears, read: Compound 3 in plasma, intravenous injection of Compound 3 (5 mg/kg).
Setting [4] is: Compound 3 in plasma, oral administration of Compound 3 (15 mg/kg).
Setting [5] is: male, SD, rat, in vivo, Compound 3 in plasma, intravenous injection of Compound 3 (5 mg/kg).
Where [6] appears, read: male, SD, rat, in vivo, Compound 3 in plasma, oral administration of Compound 3 (15 mg/kg).
Setting [7] is: male, SD, rat, in vivo, intravenous injection of Compound 3 (5 mg/kg), read-out: plasma concentration of Compound 3.
Where [8] appears, read: male, SD, rat, in vivo, oral administration of Compound 3 (15 mg/kg), read-out: plasma concentration of Compound 3.

Usually melting point stands for the temperature of the solid-liquid transition. Compound `CC(C)(C)OC(=O)NCCS(=O)(=O)Oc1ccccc1C(=O)Nc1ncc([N+](=O)[O-])s1` had a melting point of 164 to 166 °C.
For the compound `O=C(Nc1ncc([N+](=O)[O-])s1)c1ccccc1OP(=O)(OCc1ccccc1)OCc1ccccc1` [Compound 1, dibenzyl 2-(5-nitrothiazol-2-yl-carbamoyl)phenyl phosphate], the melting point lay within 122 to 123 °C. In data set [1], the “conversion to the active form tizoxanide in vivo” value (“conversion … in vivo” below) is listed as “relatively complete” and the “Area Under concentration-time Curve (AUC) compared to nitazoxanide” value is reported as “slightly higher”.
As to `O=C(Nc1ncc([N+](=O)[O-])s1)c1ccccc1OP(=O)(O)O` [Compound 2, 2-(5-nitrothiazol-2-yl-carbamoyl)phenyl dihydrogen phosphate], the melting point lay in the range of 224 to 226 °C. Further, the “conversion … in vivo” value in data set [1] is recorded as “relatively complete”.
By AUC(0-inf) is commonly meant the area under the concentration-time curve extrapolated to infinity. A high value points to high exposure. One may read the AUC(0-t) as exposure summed from dosing to a finite time, without extrapolation to infinity. The Cmax is the highest concentration seen after dosing. As a reminder, the Tmax is the time from dosing to the highest level. In data set [2] (setting [3]), `O=C(Nc1ncc([N+](=O)[O-])s1)c1ccccc1OP(=O)(O)O` [Compound 3, 2-(5-nitrothiazol-2-yl-carbamoyl)phenyl hydrogen phosphate monosodium salt] came in with a CLz/F of 17.2 ± 2.83 mL/min/kg and a t1/2z of 28.8 ± 16.8 min. In data set [2] (setting [4]), this compound showed a CLz/F of 1879.8 ± 783.8 mL/min/kg, an F of 2.4% and a t1/2z of 100 ± 100 min. Besides, in data set [2] (setting [5]), the AUC(0-inf) worked out at 4920 ± 786 ng·h/mL, the AUC(0-t) is 4920 ± 786 ng·h/mL, the highest level (Cmax) was 26700 ± 6590 ng/mL and the MRT last was found to be 15.6 ± 9 min. In addition, in data set [2] (setting [6]), the AUC(0-inf) is 154 ± 76.3 ng·h/mL, the AUC(0-t) came to 119 ± 50 ng·h/mL, the Cmax was 100 ± 20 ng/mL and the Tmax was 15 min. Also, the MRT last in data set [2] (setting [6]) was 73.2 ± 49.8 min. The Vd/F in data set [2] (male, SD, rat, in vivo, Compound 3 in plasma, oral administration of Compound 3 (15 mg/kg), read-out: Vz/F) is 198 ± 118 L/kg. For the same compound, in data set [2] (setting [7]), the concentration at 0.03 h amounted to 26700 ± 6590 ng/mL, the concentration at 0.08 h amounted to 13300 ± 1390 ng/mL, the concentration at 0.25 h came to 3970 ± 1880 ng/mL and the concentration at 0.5 h was determined as 1730 ± 1250 ng/mL. In data set [2] (setting [7]), the concentration at 1 h amounted to 345 ± 316 ng/mL. Besides, the concentration at 2 h in data set [2] (male, SD, rat, in vivo, intravenous injection of Compound 3 (5 mg/kg), 2 h, read-out: plasma concentration of Compound 3) was 113 ± 83.4 ng/mL. The concentration at 4 h in data set [2] (male, SD, rat, in vivo, intravenous injection of Compound 3 (5 mg/kg), 4 h, read-out: plasma concentration of Compound 3) came out at 13.9 ± 1.9 ng/mL. In data set [2] (setting [8]), the concentration at 0.03 h was found to be 55.3 ± 2.1 ng/mL, the concentration at 0.08 h was found to be 99.1 ± 22.1 ng/mL, the concentration at 0.25 h turned out to be 71.1 ± 7.3 ng/mL and the concentration at 0.5 h came out at 33 ± 3.2 ng/mL. In addition, in data set [2] (setting [8]), the concentration at 1 h came out at 24.4 ± 1.6 ng/mL. Moreover, the “conversion to active form tizoxanide” value in data set [2] (oral administration or intravenous injection, in words) is listed as “quickly converted”.
In the case of `CS(=O)(=O)Oc1ccccc1C(=O)Nc1ncc([N+](=O)[O-])s1` [Compound 6, 2-(5-nitrothiazol-2-yl-carbamoyl)phenyl methanesulfonate], the melting point lay within 188 to 190 °C. In addition, in data set [1], the “conversion … in vivo” value was “relatively complete” and the “Area Under concentration-time Curve (AUC) compared to nitazoxanide” value is listed as “much higher”.
On the same counts, the results for `CCS(=O)(=O)Oc1ccccc1C(=O)Nc1ncc([N+](=O)[O-])s1` [Compound 7, 2-(5-nitrothiazol-2-yl-carbamoyl)phenyl ethanesulfonate] are 178 to 180 °C, “relatively complete” and “much higher”.
On the same counts, the results for `CCCS(=O)(=O)Oc1ccccc1C(=O)Nc1ncc([N+](=O)[O-])s1` [Compound 8, 2-(5-nitrothiazol-2-yl-carbamoyl)phenyl 1-propanesulfonate] are 144 to 146 °C, “relatively complete” and “much higher”.
The compound `CCCCS(=O)(=O)Oc1ccccc1C(=O)Nc1ncc([N+](=O)[O-])s1` [Compound 9, 2-(5-nitrothiazol-2-yl-carbamoyl)phenyl 1-butanesulfonate] registered a melting point of 142 to 144 °C. For the same compound, in data set [1], the “conversion … in vivo” value was “relatively complete” and the “Area Under concentration-time Curve (AUC) compared to nitazoxanide” value is recorded as “much higher”.
Take `NCCS(=O)(=O)Oc1ccccc1C(=O)Nc1ncc([N+](=O)[O-])s1` [Compound 12, 2-(5-nitrothiazol-2-yl-carbamoyl)phenyl taurate hydrochloride]: in data set [1], the “conversion … in vivo” value is reported as “relatively complete” and the “Area Under concentration-time Curve (AUC) compared to nitazoxanide” value is on record as “much higher”.
Taken in the same sequence, the figures for `COP(=O)(OC)Oc1ccccc1C(=O)Nc1ncc([N+](=O)[O-])s1` [Compound 17, dimethyl 2-(5-nitrothiazol-2-yl-carbamoyl)phenyl phosphate] were “relatively complete” and “obviously higher”.
On the same counts, the results for `CCOP(=O)(OCC)Oc1ccccc1C(=O)Nc1ncc([N+](=O)[O-])s1` [Compound 18, diethyl 2-(5-nitrothiazol-2-yl-carbamoyl)phenyl phosphate] are “relatively complete” and “obviously higher”.
Turning to `O=C(Nc1ncc([N+](=O)[O-])s1)c1ccccc1O` [tizoxanide], in the data set with Helicobacter pylori, the “50% minimal inhibitory concentration (MIC50)” value is 1 µg/mL and the “90% minimal inhibitory concentration (MIC90)” value was 4 µg/mL.
